We go through four compounds from patent US20040093079A1, “Compositions and methods for the reduction of post-angioplasty stenosis” (priority 2001, published 2004).

The subject of experiment [1] is vascular HO-1. The following applies: pharmacologic administration of hemin; cited from earlier work.
Experiment [2] has as its target T1, soluble guanylyl cyclase (sGC) (Homo sapiens, UniProt Q02108+Q02153).
T1 sequence (Q02153 1-619): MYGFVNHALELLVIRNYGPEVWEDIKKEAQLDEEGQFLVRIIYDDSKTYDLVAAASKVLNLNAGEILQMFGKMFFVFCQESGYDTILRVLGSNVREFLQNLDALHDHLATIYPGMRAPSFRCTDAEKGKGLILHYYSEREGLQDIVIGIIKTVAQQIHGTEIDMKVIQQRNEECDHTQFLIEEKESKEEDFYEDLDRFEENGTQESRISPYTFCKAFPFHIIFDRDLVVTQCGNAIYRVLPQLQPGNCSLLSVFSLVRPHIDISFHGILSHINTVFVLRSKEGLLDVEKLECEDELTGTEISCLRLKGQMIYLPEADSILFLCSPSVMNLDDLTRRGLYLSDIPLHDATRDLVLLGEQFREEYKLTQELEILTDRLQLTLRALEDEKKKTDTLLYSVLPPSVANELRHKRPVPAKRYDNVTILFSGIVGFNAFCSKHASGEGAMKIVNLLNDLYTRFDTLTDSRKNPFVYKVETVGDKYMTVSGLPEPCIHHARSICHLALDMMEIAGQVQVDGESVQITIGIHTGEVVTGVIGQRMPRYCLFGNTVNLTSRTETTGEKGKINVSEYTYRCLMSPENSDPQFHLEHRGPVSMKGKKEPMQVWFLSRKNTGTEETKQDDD
T1 sequence (Q02108 1-690): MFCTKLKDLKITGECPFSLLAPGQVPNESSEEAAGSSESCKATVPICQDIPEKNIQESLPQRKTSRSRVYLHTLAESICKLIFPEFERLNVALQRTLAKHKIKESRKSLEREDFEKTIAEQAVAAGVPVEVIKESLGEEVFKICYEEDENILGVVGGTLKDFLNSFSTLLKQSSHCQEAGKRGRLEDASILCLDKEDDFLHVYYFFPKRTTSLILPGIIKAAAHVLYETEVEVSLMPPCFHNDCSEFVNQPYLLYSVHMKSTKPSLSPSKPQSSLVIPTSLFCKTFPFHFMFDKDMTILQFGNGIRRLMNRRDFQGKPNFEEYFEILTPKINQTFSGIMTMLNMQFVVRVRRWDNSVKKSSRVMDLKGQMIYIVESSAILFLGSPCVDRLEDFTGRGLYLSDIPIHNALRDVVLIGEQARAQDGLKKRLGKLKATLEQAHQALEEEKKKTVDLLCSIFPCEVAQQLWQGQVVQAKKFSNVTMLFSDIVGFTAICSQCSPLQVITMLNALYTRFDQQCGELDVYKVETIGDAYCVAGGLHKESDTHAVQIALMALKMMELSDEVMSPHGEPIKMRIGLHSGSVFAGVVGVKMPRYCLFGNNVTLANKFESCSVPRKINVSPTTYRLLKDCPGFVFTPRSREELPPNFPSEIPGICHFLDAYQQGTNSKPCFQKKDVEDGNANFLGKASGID
The following applies: cited from earlier work.

The test system of experiment [3] is vessel wall cGMP (sGC/cGMP system) in left carotid artery. Briefly: Cyclic GMP levels by RIA in balloon injured left carotid artery sections after perivascular YC-1. It is filed as in vivo, rat.
Description: Cyclic GMP levels were measured in vessel samples with a competitive RIA using ^125I-labeled cGMP, following instructions from the manufacturer (Amersham Pharmacia Biotech, Piscataway, N.J.). […]
For experiment [4], the system named is balloon injured left carotid artery (neointima formation). Briefly: Morphometric and histologic analysis of balloon-injured left carotid artery 2 weeks post-injury. It is filed as in vivo, rat. On the procedure: The established rat carotid artery (CA) provided the model of balloon angioplasty to illustrate the in vivo arterial response to injury. Male Sprague Dawley rats (Harlan, Indianapolis, Ind.) weighing an average 497 g were anesthetized with a combination anesthetic (ketamine, zylazine, and acepromazine; 0.5-0.7 ml/kg, IM; VetMed Drugs, Houston, Tex.), and the left CA and external carotid branch exposed.
A Fogarty 2F embolectomy catheter (Baxter Healthcare Corp., Irvine, Calif.) was introduced into the external carotid branch through an arteriotomy incision and advanced to the aortic arch. The balloon was inflated and withdrawn three times with rotation. The catheter was removed and the external carotid ligated. The overlying tissue was sutured and the skin closed with rodent wound clips.
In one embodiment, the entire length of the left CA was balloon injured, immediately followed by perivascular application of YC-1 (1 mg) on the distal section. Sites where tissues were taken for “distal+YC-1” and “proximal−YC-1” are indicated. The right CA served as an uninjured control. EC=external carotid branch; IC=internal carotid branch.
Immediately following balloon injury, at least about 200 μl of a 25% solution of a copolymer gel (Pluronic F-127; BASF Corporation, Mount Olive, N.J.) plus YC-1 (at least about 1 mg in 50 μl DMSO; Calbiochem, La Jolla, Calif.) was administered topically to the exposed adventitia of the distal CA section. […] In all experiments, the entire length of the left CA was injured (avg. 22 mm), while the contralateral right CA served as an unmanipulated untreated control. Only the distal half of the injured left CA was exposed during the surgery, and this section (approximately 11 mm) was treated with YC-1 (or empty gel) while the proximal half remained untreated. A cohort of animals that was balloon-injured and not exposed to any gel or other treatment served as a separate control group.
Acute studies illustrating enzyme and cGMP induction used freshly obtained tissues that were removed from the sacrificed animal and immediately snap-frozen. In one embodiment, two week studies were performed and morphologic remodeling of the vessel wall was monitored in tissue from animals that were perfusion-fixed transcardially using warmed PBS followed by 10% buffered formalin phosphate. Tissues were fixed, processed by standard procedures, and paraffin-embedded, procedures that are well-known to those of ordinary skill in the art of histology. Five micron sections were cut using a rotary microtome and placed on pre-treated slides. For Verhoff's elastic tissue staining, slides were deparaffinized and stained with Verhoff's solution of alcoholic hematoxylin, ferric chloride, and potassium iodine. Slides differentiated with ferric chloride and counterstained with Van Gieson's solution containing 1% acid fuchsin and picric acid.
Microscopic quantitation of vessel dimensions was performed using Zeiss Image 3.0 (Media Cybernetics) and Adobe Photoshop 4.0™ (Adobe Systems) software systems linked through a CCD color camera (Leaf Microlumina, Leaf Systems, USA) to a Zeiss Axioskop 50 light microscope (Carl Zeiss, Germany). Images were measured for perimeters and areas corresponding to internal and external elastic laminae and lumen. Numerical transformations provided data for neointimal and medial wall areas and vessel diameters.
FIG. 6 depicts representative morphometric analyses for (a) neointimal cross-sectional area, (b) neointimal area/medial wall area ratio, (c) neointimal thickness and (d) medial wall area [(a), (b) and (c) statistically significant with p<0.001; (d) statistically significant with p<0.05]. Data for balloon injured left CA distal sections exposed to YC-1 (“distal+YC-1”) and for balloon injured left CA proximal sections not exposed to YC-1 (“proximal−YC-1”) are shown. Values represent mean±SE. For all parameters n=6 animals in the control group and n=9 animals in the YC-1 treated group.

Take hemin: in experiment [1], the “vascular HO-1 expression” value is given as “upregulated vascular HO-1”.

As to `[C-]#[O+]` [CO, carbon monoxide], the “activation of the purified enzyme (sGC)” value in experiment [2] was 4- to 6 fold.

Take `[N]=O` [NO, nitric oxide]: the “activation of the purified enzyme (sGC)” value in experiment [2] is recorded as 400 fold.

Turning to `OCc1ccc(-c2nn(Cc3ccccc3)c3ccccc23)o1` [YC-1, 3-(5′-hydroxymethyl-2′-furyl)-1-benzyl indazole], the “stimulation of CO-induced sGC (specific activity)” value in experiment [2] is listed as “approximately 400 fold”. Besides, in experiment [3] (CA sections from a separate group of uninjured rats (data not shown)), the “YC-1 induced alterations in cGMP” value is on record as “do not show YC-1 induced alterations in cGMP”. Further, the cGMP content in experiment [3] (injured CA distal sections exposed to YC-1 (1 mg in gel), 24 hours post-injury, mean±SE, n=5, proximal unexposed sections 0.64±0.11, p=0.012) was 1.23±0.13. Moreover, the “histology of elastin-stained cross-section: adventitia and collagen staining” value in experiment [4] (FIG. 5 panel (B), distal section treated with 1 mg YC-1, 2 weeks post-injury) was “decreased adventitia and reduced collagen staining”. In experiment [4] (between and among all treatment groups, 2 weeks post-injury), the “lengths of internal elastic laminae and external elastic laminae” value was “No differences were detected”. Also, the “neointimal cross-sectional area, attenuation” value in experiment [4] (distal YC-1 (1 mg) sections vs proximal unexposed sections of same vessel, 2 weeks post-injury, p<0.001, n=9) was −74%. Besides, the “neointimal thickness, attenuation” value in experiment [4] (distal YC-1 (1 mg) sections vs proximal unexposed sections, 2 weeks post-injury, p<0.001, n=9) is recorded as -76%. The “medial wall cross-sectional area, diminution” value in experiment [4] (distal YC-1 (1 mg) sections vs proximal unexposed sections, 2 weeks post-injury, p<0.05, n=9) is on record as −12%. In experiment [4] (distal YC-1 (1 mg) sections vs proximal unexposed sections, 2 weeks post-injury, p=0.001, n=9), the “neointimal area/medial wall area ratio, attenuation” value is reported as −72%.
